Test results from patent US20260232671A1, “PHARMACEUTICAL COMPOSITION FOR LOCAL ADMINISTRATION, PREPARATION METHOD THEREFOR, AND USE THEREOF” (priority 2023, published 2026).

Legend:
[1] = test system: freshly excised skin samples from Bama miniature pigs; assay: IVPT, Franz diffusion cells, Example 12; type: in vitro ADME; details: penetration enhancer 7% in 1% solution, compared with the solution in the blank group
Procedure: The penetrability of the API in the topical formulations was studied using freshly excised skin samples from Bama miniature pigs mounted in Franz diffusion cells. The fresh skin of Bama miniature pigs was depilated and then stored at −20° C. for later use. On the morning of the experiment, the skin was taken out and thawed, and after the transepidermal water loss value of the skin was detected to be less than 30, the skin was ready for use. The skin was cut to a size suitable for placing the pig skin samples between the donor and receiver compartments, and the pig skin samples were placed between the donor and receiver compartments of the Franz diffusion cell. About 60 mg of the sample was evenly applied to the pig skin. The opening of the Franz cell was 3.14 cm^2. 8.0 mL of a receiver solution was used. At 0.5 h, 2 h, […], and 24 h, 1.0 mL of the sample was removed and replaced with a new receiver solution. At 24 h, the skin was collected. The pig skin was treated, the epidermal and dermis layers were separated and extracted with a skin extract solution, and the residual drug amount, drug concentrations in the epidermal and dermis layers, and drug penetration concentration were detected by HPLC.

[2] = Preparation of solutions: clear or turbid phenomenon in solvent mixtures; type: physicochemical

| Molecule | skin penetration-enhancing effect [1] | preparation of a clear solution ([2]; concentration of dimethyl sulfoxide maintained at a high level, addition of a trace amount of water) | state of the solutions ([2]; concentration of the active ingredient 1%, dimethyl sulfoxide replaced with ethanol, propylene glycol, polyethylene glycol 400, or dimethylformamide) | Phenomenon ([2]; mass %: active ingredient 1, diethylene glycol monoethyl ether 40, dimethylformamide 45, propylene glycol 14) | Phenomenon ([2]; mass %: active ingredient 1, diethylene glycol monoethyl ether 40, ethanol 50, propylene glycol 9) | Phenomenon ([2]; mass %: active ingredient 1, diethylene glycol monoethyl ether 40, polyethylene glycol 400 59) | Phenomenon ([2]; mass %: active ingredient 1, diethylene glycol monoethyl ether 40, propylene glycol 59) | Phenomenon ([2]; mass %: active ingredient 1, dimethyl sulfoxide 10, diethylene glycol monoethyl ether 40, polyethylene glycol 400 49) | Phenomenon ([2]; mass %: active ingredient 1, dimethyl sulfoxide 35, diethylene glycol monoethyl ether 10, glycerol 20, propylene glycol 34) | Phenomenon ([2]; mass %: active ingredient 1, dimethyl sulfoxide 35, diethylene glycol monoethyl ether 30, glycerol 20, propylene glycol 14) | Phenomenon ([2]; mass %: active ingredient 1, dimethyl sulfoxide 40, diethylene glycol monoethyl ether 15, glycerol 20, propylene glycol 14, water 10) | Phenomenon ([2]; mass %: active ingredient 1, dimethyl sulfoxide 40, diethylene glycol monoethyl ether 15, propylene glycol 14, water 30) | Phenomenon ([2]; mass %: active ingredient 1, dimethyl sulfoxide 40, diethylene glycol monoethyl ether 35, propylene glycol 14, water 10) | Phenomenon ([2]; mass %: active ingredient 1, dimethyl sulfoxide 40, diethylene glycol monoethyl ether 40, glycerol 5, propylene glycol 14) | Phenomenon ([2]; mass %: active ingredient 1, dimethylformamide 45, propylene glycol 54) | Phenomenon ([2]; mass %: active ingredient 1, ethanol 45, propylene glycol 54) | Phenomenon ([2]; mass %: active ingredient 1.5, dimethyl sulfoxide 45, diethylene glycol monoethyl ether 40, propylene glycol 13.5) | Phenomenon ([2]; mass %: active ingredient 2, dimethyl sulfoxide 45, diethylene glycol monoethyl ether 40, propylene glycol 12) |
| --- | --- | --- | --- | --- | --- | --- | --- | --- | --- | --- | --- | --- | --- | --- | --- | --- | --- | --- |
| CC(O)C(=O)O (stereo not shown) [lactic acid] | relatively good skin penetration-enhancing effect | – | – | – | – | – | – | – | – | – | – | – | – | – | – | – | – | – |
| COc1nsc(NC(=O)N2C[C@H]3CC(N(C)c4ncnc5[nH]ccc45)C[C@H]3C2)n1 (stereo partly drawn) [Active ingredient in free base form, (3aR,5s,6aS)—N-(3-methoxy-1,2,4-thiadiazol-5-yl)-5-(methyl(7H-pyrrolo[2,3-d]pyrimidin-4-yl)amino)hexahydrocyclopenta[c]pyrrole-2(1H)-carboxamide] | – | failed to prepare a clear solution above 1% concentration | suspensions | Turbid | Turbid | Turbid | Turbid | Turbid | Clear | Clear | Turbid | Turbid | Turbid | Clear | Turbid | Turbid | Clear | Clear |
| propylene glycol monocaprylate | certain skin penetration-enhancing effect | – | – | – | – | – | – | – | – | – | – | – | – | – | – | – | – | – |
